# According to patent US9616046B2, “Hepatocyte-proliferating agent” (JAPAN BIO PRODUCTS CO., LTD., priority 2013, dated 2017):
# Tested on: rat normal hepatocytes
# Assay: Intracellular signaling pathway analysis using kinase inhibitors (DNA synthesis activity, BrdU ELISA)
# Assay type: cell-based
# Conditions: PARI-S001 (pyroglutamic acid 10 mM) plus inhibitor; PD98059, SB203580, LY294002 6.3-50 μM, rapamycin 1.6-12.5 ng/mL; 0.5% DMSO; 22 hours
# Protocol: The intracellular signaling pathway analysis was carried out in order to clarify through which intracellular signaling pathway the PARI-S001 promoted cell proliferation activity. PARI-S001 and various kinase inhibitors were used to measure the cell proliferation activity. The measurement method used was the same method as that in the above-described <Normal Cell Proliferation Test>. The rat normal hepatocytes were cultured for 3 hours after seeding, followed by replacement with the medium to which […] (pyroglutamic acid concentration: 10 mM) and each kinase inhibitor were simultaneously added. The concentration of rapamycin (an inhibitor of mTOR) was adjusted to a final concentration of 1.6 ng/mL, 3.1 ng/mL, 6.3 ng/mL, or 12.5 ng/mL. The concentration of PD98059 (an inhibitor of MEK1 and MEK2), SB203580 (an inhibitor of p38 of MAPK), and LY294002 (an inhibitor of PI3K) was adjusted to a final concentration of 6.3 μM, 12.5 μM, 25 μM, or 50 μM. To promote the dissolution of each kinase inhibitor, dimethyl sulfoxide (hereinafter abbreviated as “DMSO”) was added to a final concentration of 0.5% to the medium. Similarly, DMSO was added to a final concentration of 0.5% to the control. Culture was further carried out for 22 hours after medium replacement, followed by evaluating DNA synthesis activity using a Cell Proliferation ELISA BrdU (colorimetric) Kit (Roche Co., Ltd.).
smiles,measurement,value
COc1cccc(-c2cc(=O)c3ccccc3o2)c1N [PD98059],DNA synthesis activity in rat normal hepatocytes on simultaneous addition of PARI-S001 and kinase inhibitor,suppress DNA synthesis activity in the rat normal hepatocytes depending on the concentration of the inhibitor
